Data from US8772500B2, “TRPV3 modulators” (AbbVie Inc., priority 2011, dated 2014).

How the values were obtained:
[1] = In vitro rat microsomal stability assay; type: in vitro ADME, rat (Sprague-Dawley)
Experimental: (§1) Test compounds were evaluated for metabolic stability in an in vitro rat microsomal stability assay using rat (Sprague-Dawley, from BD Biosciences) liver microsomes and/or an in vitro human microsomal stability assay using human (Xenotech) liver microsomes. […] Incubations were carried out at 37° C. with a final incubation volume of 135 μL. […] A 1.5 μL aliquot of reduced nicotine adenine disphosphonucleotide (NADPH) (Chem-Impex Int'L Inc., Lot 12532024) was also added to the time-zero plates.

[2] = In vitro human microsomal stability assay; type: in vitro ADME
Experimental: as §1

[3] = Sprague-Dawley, rat, 0.5 h, 0.5 μM, pH 7.4
[4] = 0.5 μM substrate, 0.25 mg/mL microsomal protein, pH 7.4, 37° C., NADPH, 30 minutes

Row | Compound | RAT MICROSOMAL STABILITY (% REMAINING AFTER 30 MINUTES) [1, 3] | HUMAN MICROSOMAL STABILITY (% REMAINING AFTER 30 MINUTES) ([2]; human, 0.5 h, 0.5 μM, pH 7.4) | RAT MICROSOMAL STABILITY (% REMAINING AFTER 30 MINUTES) [1, 4] | HUMAN MICROSOMAL STABILITY (% REMAINING AFTER 30 MINUTES) [2, 4]
1 | OC1CC(c2ccc(C(F)(F)F)cc2)([C@@H](O)c2ccccn2)C1 (mixture of isomers) [Example 199, 3-[(R)-hydroxy(pyridin-2-yl)methyl]-3-[4-(trifluoromethyl)phenyl]-cyclobutanol] | >85% | >85% | – | –
2 | OC(c1ccccn1)C1(c2cccc(F)c2)CCCO1 (single isomer, unassigned) [Example 101, (syn)-[2-(3-fluorophenyl)tetrahydrofuran-2-yl](pyridin-2-yl)methanol] | 0.17% | 40% | – | –
3 | OC1CC(c2ccc(OC(F)(F)F)cc2)(C(O)c2ccccn2)C1 (single isomer, unassigned) [Example 131] | 50% | >85% | – | –
4 | OC(C1CCCc2cccnc21)C1(c2ccc(OC(F)(F)F)cc2)CCC1 (single isomer, unassigned) [Example 178, (syn)-5,6,7,8-tetrahydroquinolin-8-yl{1-[4-(trifluoromethoxy)phenyl]-cyclobutyl}methanol] | <0.01% | 9.2% | – | –
5 | OC(C1CCCc2cccnc21)C1(c2cccc(C(F)(F)F)c2)CCC1 (single isomer, unassigned) [Example 180, (syn)-5,6,7,8-tetrahydroquinolin-8-yl{1-[3-(trifluoromethyl)phenyl]-cyclobutyl}methanol] | <0.01% | <0.01% | – | –
6 | OC(C1CCCc2cccnc21)C1(c2ccc(Cl)c(Cl)c2)CCC1 (single isomer, unassigned) [Example 182, (syn)-[1-(3,4-dichlorophenyl)cyclobutyl][5,6,7,8-tetrahydroquinolin-8-yl]-methanol] | <0.01% | <0.01% | – | –
7 | OC(C1CCCc2cccnc21)C1(c2ccc(C(F)(F)F)cc2)CCC1 (single isomer, unassigned) [Example 184, (syn)-5,6,7,8-tetrahydroquinolin-8-yl{1-[4-(trifluoromethyl)phenyl]-cyclobutyl}methanol] | <0.01% | 0.46% | – | –
8 | OC1CC(c2ccc(Cl)c(Cl)c2)(C(O)c2ncccn2)C1 (single isomer, unassigned) [Example 313] | >85% | 81% | – | –
9 | OC(c1ccccn1)C1(c2ccccn2)CCC1 (centres unmarked) [Example 19, pyridin-2-yl(1-pyridin-2-ylcyclobutyl)methanol] | 76% | >85% | – | –
10 | OC(c1ccccn1)C1(c2cccnc2)CCC1 (centres unmarked) [Example 20, pyridin-2-yl(1-pyridin-3-ylcyclobutyl)methanol] | 81% | 80% | – | –
11 | OC(c1ccccn1)C1(c2ccncc2)CCC1 (centres unmarked) [Example 21, pyridin-2-yl(1-pyridin-4-ylcyclobutyl)methanol] | 52% | 71% | – | –
12 | O[C@H](c1ncccn1)C1(c2ccc(C(F)(F)F)cc2)CCC1 [Example 41, (S)-pyrimidin-2-yl{1-[4-(trifluoromethyl)phenyl]cyclobutyl}methanol] | 21% | 54% | – | –
13 | O[C@@H](c1ncccn1)C1(c2ccc(C(F)(F)F)cc2)CCC1 [Example 42, (R)-pyrimidin-2-yl{1-[4-(trifluoromethyl)phenyl]cyclobutyl}methanol] | 40% | 50% | – | –
14 | OC(c1ccccn1)C1(c2ccc(Cl)c(Cl)c2)CCCCC1 (centres unmarked) [Example 43, [1-(3,4-dichlorophenyl)cyclohexyl](pyridin-2-yl)methanol] | 0.31% | 1.8% | – | –
15 | OC(c1ccccn1)C1(c2ccc(Cl)c(Cl)c2)COC1 (centres unmarked) [Example 87, [3-(3,4-dichlorophenyl)oxetan-3-yl](pyridin-2-yl)methanol] | 8.6% | 47% | – | –
16 | OC(c1ccccn1)C1(c2ccccc2F)CCCO1 (centres unmarked) [Example 102] | 0.55% | 45% | – | –
17 | Nc1cccnc1C(O)C1(c2cccc(C(F)(F)F)c2)CCC1 (centres unmarked) [Example 120, (3-aminopyridin-2-yl){1-[3-(trifluoromethyl)phenyl]cyclobutyl}methanol] | <0.01% | 1.6% | – | –

Row | Compound | RAT MICROSOMAL STABILITY (% REMAINING AFTER 30 MINUTES) [1, 3] | HUMAN MICROSOMAL STABILITY (% REMAINING AFTER 30 MINUTES) ([2]; human, 0.5 h, 0.5 μM, pH 7.4) | RAT MICROSOMAL STABILITY (% REMAINING AFTER 30 MINUTES) [1, 4] | HUMAN MICROSOMAL STABILITY (% REMAINING AFTER 30 MINUTES) [2, 4]
18 | Nc1cccnc1C(O)C1(c2ccc(OC(F)(F)F)cc2)CCC1 (centres unmarked) [Example 121, (3-aminopyridin-2-yl){1-[4-(trifluoromethoxy)phenyl]cyclobutyl}methanol] | 0.18% | 41% | – | –
19 | O[C@@H](c1ccccn1)C1(c2cc(C(F)(F)F)ccn2)CCC1 [Example 122, (R)-pyridin-2-yl{1-[4-(trifluoromethyl)pyridin-2-yl]cyclobutyl}methanol] | 26% | 28% | – | –
20 | Nc1cccnc1C(O)C1(c2cccc(OC(F)(F)F)c2)CCC1 (centres unmarked) [Example 124, (3-aminopyridin-2-yl){1-[3-(trifluoromethoxy)phenyl]cyclobutyl}methanol] | <0.01% | 1.6% | – | –
21 | OC(c1ccccn1)C1(c2ccc(Cl)c(Cl)c2)CCNCC1 (centres unmarked) [Example 140, [4-(3,4-dichlorophenyl)piperidin-4-yl](pyridin-2-yl)methanol] | 37% | >85% | – | –
22 | CN1CCC(c2ccc(Cl)c(Cl)c2)(C(O)c2ccccn2)CC1 (centres unmarked) [Example 141, [4-(3,4-dichlorophenyl)-1-methylpiperidin-4-yl](pyridin-2-yl)methanol] | – | – | 59% | >85%
23 | OC(c1ccccn1)C1(c2ccccc2OC(F)(F)F)CCNCC1 (centres unmarked) [Example 142, pyridin-2-yl{4-[2-(trifluoromethoxy)phenyl]piperidin-4-yl}methanol] | 37% | >85% | – | –
24 | CN1CCC(c2ccc(C(F)(F)F)cc2)(C(O)c2ccccn2)CC1 (centres unmarked) [Example 143, {1-methyl-4-[4-(trifluoromethyl)phenyl]piperidin-4-yl}(pyridin-2-yl)-methanol] | – | – | 80% | >85%
25 | OC(c1ccccn1)C1(c2ccc(OC(F)(F)F)cc2)CCNCC1 (centres unmarked) [Example 144, pyridin-2-yl{4-[4-(trifluoromethoxy)phenyl]piperidin-4-yl}methanol] | 51% | >85% | – | –
26 | OC(c1ccccn1)C1(c2ccc(C(F)(F)F)cc2)CCNCC1 (centres unmarked) [Example 147, pyridin-2-yl{4-[4-(trifluoromethyl)phenyl]piperidin-4-yl}methanol] | 79% | >85% | – | –
27 | CC(C)(C)OC(=O)N1CCC(c2ccc(C(F)(F)F)cc2)(C(O)c2ccccn2)CC1 (centres unmarked) [Example 156, tert-butyl 4-[hydroxy(pyridin-2-yl)methyl]-4-[4-(trifluoromethyl)phenyl]-piperidine-1-carboxylate] | 0.08% | 26% | – | –
28 | CC(C)(C)OC(=O)N1CCC(c2ccc(OC(F)(F)F)cc2)(C(O)c2ccccn2)CC1 (centres unmarked) [Example 157, tert-butyl 4-[hydroxy(pyridin-2-yl)methyl]-4-[4-(trifluoromethoxy)phenyl]-piperidine-1-carboxylate] | 0.93% | 28% | – | –
29 | CC(C)(C)OC(=O)N1CCC(c2cccc(OC(F)(F)F)c2)(C(O)c2ccccn2)CC1 (centres unmarked) [Example 158, tert-butyl 4-[hydroxy(pyridin-2-yl)methyl]-4-[3-(trifluoromethoxy)phenyl]-piperidine-1-carboxylate] | – | – | 0.04% | 3.7%
30 | O=C1CC(c2ccc(C(F)(F)F)cc2)([C@H](O)c2ccccn2)C1 [Example 164, 3-[(S)-hydroxy(pyridin-2-yl)methyl]-3-[4-(trifluoromethyl)phenyl]-cyclobutanone] | 81% | 71% | – | –
31 | O=C1CC(c2ccc(C(F)(F)F)cc2)([C@@H](O)c2ccccn2)C1 [Example 165, 3-[(R)-hydroxy(pyridin-2-yl)methyl]-3-[4-(trifluoromethyl)phenyl]cyclobutanone] | 77% | 83% | – | –
32 | OC(C1CCc2cccnc21)C1(c2ccc(Cl)c(Cl)c2)CCC1 (stereo not drawn) [Example 167, (anti)-[1-(3,4-dichlorophenyl)cyclobutyl][6,7-dihydro-5H-cyclopenta[b]-pyridin-7-yl]methanol] | <0.01% | 9.5% | – | –
33 | OC(C1CCc2cccnc21)C1(c2cccc(C(F)(F)F)c2)CCC1 (stereo not drawn) [Example 186, (syn)-6,7-dihydro-5H-cyclopenta[b]pyridin-7-yl{1-[3-(trifluoromethyl)-phenyl]cyclobutyl}methanol] | – | 0.18% | – | –
